Activity calls are given as the source filed them. The rule behind the calls is not given here.
What was measured:
[1] = system: THP-1; assay: Proapoptotic activity in human THP1 cells assessed as viable cells at 25 uM after 1 hr by annexin V/propidium iodide staining-based capillary cytometric method relative to control; format: functional; conditions: THP-1, 1 h, read-out: Activity
[2] = system: THP-1; assay: Proapoptotic activity in human THP1 cells assessed as viable cells at 25 uM after 3 hrs by annexin V/propidium iodide staining-based capillary cytometric method relative to control; format: functional; conditions: THP-1, 3 h, read-out: Activity
[3] = system: NTERA-2-cl-D1; assay: Induction of apoptosis in human NT2/D1 cells assessed as activation of caspase 8/9 at 25 uM by 7-AAD staining-based capillary cytometric method; format: functional, cell-based
[4] = system: NTERA-2-cl-D1; assay: Induction of apoptosis in human NT2/D1 cells assessed as early apoptotic cells at 25 uM after 4 hrs in presence of pan caspase inhibitor Z-VAD-fmk by annexin V/propidium iodide staining-based capillary cytometric method (reference value: 3.40%); format: functional
[5] = system: NTERA-2-cl-D1; assay: Induction of apoptosis in human NT2/D1 cells assessed as viable cells at 25 uM after 4 hrs by annexin V/propidium iodide staining-based capillary cytometric method (reference value: 95.80%); format: functional; conditions: NTERA-2-cl-D1, 4 h, read-out: Activity
[6] = system: THP-1; assay: Induction of apoptosis in human THP1 cells assessed as late apoptotic cells at 25 uM after 4 hrs in presence of pan caspase inhibitor Z-VAD-fmk by annexin V/propidium iodide staining-based capillary cytometric method (reference value: 0.34%); format: functional
[7] = system: NTERA-2-cl-D1; assay: Proapoptotic activity in human NT2/D1 cells assessed as viable cells at 25 uM after 3 hrs by annexin V/propidium iodide staining-based capillary cytometric method relative to control; format: functional; conditions: NTERA-2-cl-D1, 3 h, read-out: Activity
[8] = system: BXPC-3; assay: Proapoptotic activity in human BxPC3 cells by annexin V-FITC/propidium iodide staining-based capillary cytometric method; format: functional, cell-based
[9] = system: THP-1; assay: Proapoptotic activity in human THP1 cells assessed as early apoptotic cells at 25 uM after 1 hr by annexin V/propidium iodide staining-based capillary cytometric method relative to control; format: functional
[10] = system: NTERA-2-cl-D1; assay: Proapoptotic activity in human NT2/D1 cells assessed as viable cells at 25 uM after 5 hrs by annexin V/propidium iodide staining-based capillary cytometric method relative to control; format: functional; conditions: NTERA-2-cl-D1, 5 h, read-out: Activity
[11] = system: THP-1; assay: Induction of DNA fragmentation in human THP1 cells at 25 uM after 6 to 24 hrs by propidium iodide/RNase staining-based capillary cytometric method; format: functional, cell-based
[12] = system: NTERA-2-cl-D1; assay: Proapoptotic activity in human NT2/D1 cells assessed as early apoptotic cells at 25 uM after 1 hr by annexin V/propidium iodide staining-based capillary cytometric method relative to control; format: functional
[13] = system: NTERA-2-cl-D1; assay: Proapoptotic activity in human NT2/D1 cells assessed as late apoptotic cells at 25 uM after 1 hr by annexin V/propidium iodide staining-based capillary cytometric method relative to control; format: functional
[14] = system: THP-1; assay: Induction of apoptosis in human THP1 cells assessed as activation of caspase 3/7 by measuring DNA fragmentation at 25 uM after 3 hrs by 7-AAD staining-based capillary cytometric method; format: functional, cell-based
[15] = system: THP-1; assay: Proapoptotic activity in human THP1 cells assessed as necrotic cells at 25 uM after 7 hrs by annexin V/propidium iodide staining-based capillary cytometric method relative to control; format: functional
[16] = system: NTERA-2-cl-D1; assay: Proapoptotic activity in human NT2/D1 cells assessed as late apoptotic cells at 25 uM after 7 hrs by annexin V/propidium iodide staining-based capillary cytometric method relative to control; format: functional
[17] = system: THP-1; assay: Induction of apoptosis in human THP1 cells assessed as […] cells at 25 uM after 4 hrs by annexin V/propidium iodide staining-based capillary cytometric method (reference value: 96.40%); format: functional
[18] = system: NTERA-2-cl-D1; assay: Proapoptotic activity in human NT2/D1 cells assessed as viable cells at 25 uM after 7 hrs by annexin V/propidium iodide staining-based capillary cytometric method relative to control; format: functional; conditions: NTERA-2-cl-D1, 7 h, read-out: Activity
[19] = system: THP-1; assay: Proapoptotic activity in human THP1 cells assessed as necrotic cells at 25 uM after 3 hrs by annexin V/propidium iodide staining-based capillary cytometric method relative to control; format: functional
[20] = system: NTERA-2-cl-D1; assay: Proapoptotic activity in human NT2/D1 cells assessed as late apoptotic cells at 25 uM after 5 hrs by annexin V/propidium iodide staining-based capillary cytometric method relative to control; format: functional
[21] = system: THP-1; assay: Proapoptotic activity in human THP1 cells assessed as early apoptotic cells at 25 uM after 3 hrs by annexin V/propidium iodide staining-based capillary cytometric method relative to control; format: functional
[22] = system: THP-1; assay: Induction of apoptosis in human THP1 cells assessed as early apoptotic cells at 25 uM after 4 hrs in presence of pan caspase inhibitor Z-VAD-fmk by annexin V/propidium iodide staining-based capillary cytometric method (reference value: 3.22%); format: functional
[23] = system: NTERA-2-cl-D1; assay: Proapoptotic activity in human NT2/D1 cells assessed as viable cells at 25 uM after 1 hr by annexin V/propidium iodide staining-based capillary cytometric method relative to control; format: functional; conditions: NTERA-2-cl-D1, 1 h, read-out: Activity
[24] = system: THP-1; assay: Proapoptotic activity in human THP1 cells assessed as late apoptotic cells at 25 uM after 1 hr by annexin V/propidium iodide staining-based capillary cytometric method relative to control; format: functional
[25] = system: THP-1; assay: Induction of apoptosis in human THP1 cells assessed as late necrotic cells at 25 uM after 4 hrs in presence of pan caspase inhibitor Z-VAD-fmk by annexin V/propidium iodide staining-based capillary cytometric method (reference value: 0.04%); format: functional
[26] = system: NTERA-2-cl-D1; assay: Induction of apoptosis in human NT2/D1 cells assessed as early apoptotic cells at 25 uM after 4 hrs by annexin V/propidium iodide staining-based capillary cytometric method (reference value: 3.40%); format: functional
[27] = system: THP-1; assay: Induction of apoptosis in human THP1 cells assessed as late necrotic cells at 25 uM after 4 hrs by annexin V/propidium iodide staining-based capillary cytometric method (reference value: 0.04%); format: functional
[28] = system: NTERA-2-cl-D1; assay: Proapoptotic activity in human NT2/D1 cells assessed as necrotic cells at 25 uM after 5 hrs by annexin V/propidium iodide staining-based capillary cytometric method relative to control; format: functional
[29] = system: THP-1; assay: Induction of apoptosis in human THP1 cells assessed as activation of caspase 8/9 at 25 uM by 7-AAD staining-based capillary cytometric method; format: functional, cell-based

`CNc1nc(-c2cccc(NC(=O)c3cc4ccccc4[nH]3)c2)c[nH]1.Cl` was tested, and the viability at 25 µM [1] was 95.7%, the viability at 25 µM [2] was 77.3% and the Activity [3] was “Active”. It also gave an Activity [4] of 8.15%, a viability at 25 µM [5] of 70.7% and an Activity [6] of 17.2%. It also gave a viability at 25 µM [7] of 73.9%, an EC50 [8] of 58 µM and an Activity [9] of 1.45%. For the same compound, the viability at 25 µM [10] was 47%, the Activity [11] was “Active” and the Activity [12] was 8.6%. For the same compound, the Activity [13] was 3.59%, the Activity [14] was “Active” and the Activity [15] was 0.2%. It also gave an Activity [16] of 13.18%, an Activity [17] of 5.34% and a viability at 25 µM [18] of 31.2%. It also gave an Activity [19] of 0.3%, an Activity [20] of 6.08% and an Activity [21] of 5.81%. The Activity [22] was 64.66%, the viability at 25 µM [23] was 87.7% and the Activity [24] was 2.66%. The Activity [25] was 0.1%, the Activity [26] was 23.88% and the Activity [27] was 0.26%. For the same compound, the Activity [28] was 0.6% and the Activity [29] was “Active”.
